Data published in patent publication US10577406B2, “FKBP-L polypeptides and uses in angiogenesis-mediated disorders” (ALMAC DISCOVERY LIMITED, priority 2006, dated 2020).

B1: full length recombinant FKBP-L: recombinant full length his-tagged FKBP-L protein (SEQ ID NO: 1) expressed in BL21 (DE3) (protein, listed as Homo sapiens)
chain: MRGSHHHHHHGMASMTGGQQMGRDLYDDDDKDRWGSMETPPVNTIGEKDTSQPQQEWEKNLRENLDSVIQIRQQPRDPPTETLELEVSPDPASQILEHTQGAEKLVAELEGDSHKSHGSTSQMPEALQASDLWYCPDGSFVKKIVIRGHGLDKPKLGSCCRVLALGFPFGSGPPEGWTELTMGVGPWREETWGELIEKCLESMCQGEEAELQLPGHTGPPVGLTLASFTQGRDSWELETSEKEALAREERARGTELFRAGNPEGAARCYGRALRLLLTLPPPGPPERTVLHANLAACQLLLGQPQLAAQSCDRVLEREPGHLKALYRRGVAQAALGNLEKATADLKKVLAIDPKNRAAQEELGKVVIQGKNQDAGLAQGLRKMFG
modifications: His tag

Legend:
[1] = system: HMEC-1; experiment: cell adhesion assay on Matrigel (MTT readout); format: cell-based, Human; details: 1 h at 37° C.
Method: A 96-well plate was pre-coated with a thin layer of Matrigel which was allowed to set overnight. The plate wells were blocked with 0.5% BSA for 1 h at 37° C. in a 95% air/5% CO2 incubator. Human microvascular endothelial cells (HMEC-1) were trypsinised and re-suspended in fresh medium and seeded at a density of 20000 cells per well. The plates were placed at 4° C. for 10 min to allow the cells to sediment to the bottom of the wells. The required amount of medium supplemented with the FKBP-L 24mer was added to each well and the plate incubated for 1 h at 37° C. The excess medium and unattached cells were removed and the wells washed three times with sterile PBS. The wells were supplemented with fresh medium and MTT added (5 mgml^−1). The plate was incubated for a further 4 h at 37° C. DMSO was added to each well to solubilise the MTT to formazen and the plate read at 540nm, with the relative absorbance of control wells compared to FBKP-L 24mer-supplemented wells.

[2] = system: DU145 tumours; experiment: prostate cancer xenograft model, daily IP injection; format: in vivo, SCID mice
Method: Du145 (prostate carcinoma) cells were obtained from Cancer Research UK and cultured in RPMI 1640 medium (Invitrogen) supplemented with 10% foetal calf serum. All cell lines were grown as monolayers, incubated at 37° C. under 5% CO2.
24 male immunocompromised (severe combined immunodeficient) mice were used (Harlan). The mice were acclimatised and caged in groups of 5 or less in an isolator. Du145 (prostate carcinoma) cells were cultured as previously described. Sub-confluent cells were harvested and the cell concentration was adjusted to 5×10^7 cells/ml in PBS. The dorsum of each mouse was shaved. After administrating aesthetic, each mouse received intra-dermal injections of 5×10^6 Du145 tumour cells (100 μl) bilaterally into the rear dorsum with a 26-gauge needle. The tumours were allowed to grow until they reached a volume of 150-175 mm^3. The mice were randomly divided into four treatment groups: (a) Control: PBS only (8 mice); (b) 24mer FKBPL peptide: 0.3 mg/kg/day (6 mice); (c) 24mer FKBPL peptide: 3×10^−3 mg/kg/day (6 mice); and (d) 24mer FKBPL peptide: 3×10^−4 mg/kg/day (5 mice).
The mice received daily IP injections (100 μl) of the above treatments. The weight and the tumour volume of each mouse were recorded every 2 days. Tumour volume was calculated as: Length×Breadth×Height×0.5236. Twenty-one days after initial treatment the following animals were sacrificed: 0.3 mg/kg/day 24mer FKBPL (2 mice), 3×10^−3 mg/kg/day (2 mice), 3×10^−4 mg/kg/day (1 mouse) and PBS (2 mice). The tumours were excised and stored in saline formalin solution for future histopathological analysis.

[3] = system: HMEC-1 cells; experiment: MTT assay of cell viability/proliferation; details: 24mer 10^−5-10^−10M, 1-57mer 10^−9M and 10^−10M; 24 hours and 48 hours
Method: (§1) An MTT assay was used to measure cell viability/proliferation.
(§2) An MTT assay was used to measure cell viability and/or proliferation. Briefly, HMEC-1 cells were seeded (2.5×10^3) in 96 well plates and allowed to attach for 5 h. The cells were treated with FKBP-L 24mer (SEQ ID NO: 10) (10^−5-10^−10M), 1-57mer (SEQ ID NO: 6) (10^−9M and 10^−10M) or medium (control).
(§3) Post incubation the cells were exposed to a 5 mgml^−1 solution of 3-(-4,5-dimethylthiazol-2-yl) 2,5 diphenyl tetrazolium (MTT) for 4 h. The cells were aspirated and 200 μl of DMSO added to reduce the salt and induce a colour change.

[4] = system: HT29 (Colorectal tumor cell line; CD44 +ve); experiment: tumor cell migration, wound closure assay, HT29; format: cell-based; details: 24 hours
Method: In these experiments, the effect of recombinant FKBP-L on tumor cell migration was assessed. The in vitro migration assay used in these studies is a modified version of the method described by Ashton et al (1999) see supra. PC3, MDA231, and HT29 tumor cells were plated into individual chambers on a glass slide and grown to 90% confluence overnight. The medium was removed and the monolayers wounded. The monolayer was re-supplemented with fresh medium and the required volume of His-tagged recombinant FKBP-L protein (SEQ ID NO: 1) was added to give the final concentrations shown. The monolayers were incubated for 24 hours and then fixed in 4% PBS buffered paraformaldehyde.
The extent of “wound” closure was blindly assessed microscopically by an independent investigator and quantified using a calibrated eyepiece graticule (1 mm/100 μm graduation) at 20× magnification (Olympus BX 50). The extent of closure in the FKBP-L treated slides was compared to time matched sham-treated controls and the percent inhibition of wound closure compared to time matched controls calculated. […]
The extent of “wound” closure was blindly assessed microscopically by an independent investigator and quantified using a calibrated eyepiece graticule (1 mm/100 μm graduation) at 20× magnification (Olympus BX 50). […]

[5] = system: DU145 (prostate tumor cell line; CD44 −ve); experiment: tumor cell migration, wound closure assay, DU145; format: cell-based, human; details: 24 h
Method: The in vitro migration assay used in these studies is a modified version of the method described by Ashton et al. (1999) see supra. PC3 (prostate tumor cell line; CD44 positive; CD44 +ve), MDA231 (breast tumor cell line; CD44 +ve), HT29 (Colorectal tumor cell line; CD44 +ve), MCF-7 (breast tumor cell line; CD44 negative; CD44 −ve) and DU145 (prostate tumor cell line; CD44 −ve) were plated into individual chambers on a glass slide and grown to 90% confluence overnight. The medium was removed and the monolayers wounded. […] The monolayers were incubated for 24 h and then fixed in 4% PBS buffered paraformaldehyde.
The extent of “wound” closure was blindly assessed microscopically by an independent investigator and quantified using a calibrated eyepiece graticule (1 mm/100 μm graduation) at 20× magnification (Olympus BX 50). The extent of closure in the FKBP-L treated slides was compared to time matched sham treated controls and the % inhibition of wound closure compared to time matched controls calculated.

[6] = system: HMEC-1 cells
Method: as §1, §2, §3

Molecule | effect on cell adhesion [1] | tumors compared with controls (Kaplan-Meier, time to 3× treatment volume) ([2]; 0.0003 mg/kg/day, daily IP) | time for tumours to reach 3× their treatment volume (Kaplan-Meier survival) ([2]; 0.003 mg/kg/day, daily IP) | time for tumours to reach 3× their treatment volume (Kaplan-Meier survival) ([2]; 0.3 mg/kg/day, daily IP) | tumours that failed to reach their volume tripling within the duration of the experiment (all but the stated number) ([2]; 0.3 mg/kg/day, daily IP) | growth of DU145 tumours compared to vehicle only treated tumours ([2]; 0.3 mg/kg/day, daily i.p.) | growth of DU145 tumours compared to vehicle only treated tumours ([2]; 3×10^−3 mg/kg/day, daily i.p.) | body weight after daily treatment (tolerability) ([2]; daily IP injection) | tumour appearance ([2]; most effective doses, daily i.p., a number of tumours) | effect on proliferation of HMEC-1 cells compared to time-matched controls [3] | effect on tumor cell migration [4] | effect on tumor cell migration [5] | effect on proliferation of HMEC-1 cells compared to time matched controls [6]
H-QIRQQPRDPPTETLELEVSPDPAS-OH [FKBP-L 24mer] | potent inhibitor of HMEC-1 adhesion | not significantly different from controls | significantly later than controls | significantly later than controls | All but two tumours (of 6) | significantly slowed the growth | significantly slowed the growth | None of the animals lost weight | evidence of a necrotic centre | neither of the peptides had any significant effect | – | – | –
B1 | – | – | – | – | – | – | – | – | – | – | inhibits tumor cell migration in a dose-dependent manner | not in CD44 −ve tumor cell lines | no significant effect
